From patent US5932709A (University of Michigan, priority 1997, dated 1999)
In brackets after ≈: the same amount, converted by molar mass.

How the values were obtained:
in vivo = settings: mouse, in vivo, ip
Source text: For all the models, the vehicle used to deliver the analog of interest was isotonic saline.
For the MX-1 human breast tumor xenograft models, the following procedure was used. Nude mice are implanted s.c. by trocar with fragments of MX-1 mammary carcinomas harvested from s.c. growing MX-1 tumors in nude mice hosts. When tumors are approximately 5 mm×5 mm in size (usually about ten days after inoculation), the animals are pair-matched into treatment and control groups. Each group contains ten tumored mice, each of which is ear-tagged and followed individually throughout the experiment. The administration of drugs or vehicle begins the day the animals are pair-matched (day 1). The doses, route of drug administration and schedule are selected as appropriate for the study in question. If the MTD dose of an agent is not known, it is determined in an initial dosing experiment in non-tumored mice. In a typical experiment, drugs are given at their MTD and 1/2 MTD doses i.p. on a daily×5 schedule.
The experiment is usually terminated when control tumors reach a size of 2-3 g. Mice are weighed twice weekly, and tumor measurements are taken by calipers twice weekly, starting on day 1. These tumor measurements are converted to mg tumor weight by a well known formula, and from these calculated tumor weights the termination date can be determined. Upon termination, all mice are weighed, sacrificed, and their tumors excised. Tumors are weighed, and the mean tumor weight per group is calculated.
Some drugs cause tumor shrinkage in the MX-1 model. With these agents, the final weight of a given tumor is subtracted from its own weight at the start of the treatment on day 1. This difference divided by the initial tumor weight is the % shrinkage. A mean % tumor shrinkage can be calculated from data from the mice in a group that experienced MX-1 regressions. If the tumor completely disappears in a mouse, this is considered a complete regression or complete tumor shrinkage. If desired, mice with partial or total tumor regressions can be kept alive past the termination date to see whether they live to become long term, tumor-free survivors.
Note that in the following table the abbreviation SR refers to tumor shrinkage rate, while those entries followed by a superscripted `2` are tumor growth inhibition rates, not tumor shrinkage rates.

[1] = Murine P388 leukemia model in vivo; design: species or system mouse (B6D2F1); settings: mouse, in vivo, ip; i.p. daily×5
Procedure: For the B16 melanoma model, the following procedure was used. B6D2F1 mice receive i.p. inocula of B16 murine melanoma brei prepared from B16 tumors growing s.c. in mice (day 0). […] If dosing information for agents is not available, the maximum tolerated dose (MTD) is determined in initial dose finding experiments in non-tumored mice.
The mean survival times of all groups are calculated, and results are expressed as mean survival of treated mice/mean survival of control mice (T/C)×100%. A T/C value of 150 means that the mice in the treated group lived 50% longer than those of the control group; this is sometimes referred to as the increase in life span or ILS value.
For the P388 leukemia model, the procedure followed is exactly the same as the aforementioned B16 model. The tumor inoculum is prepared by removing ascited fluid containing P388 cells from tumored B6D2F1 mice, centrifuging the cells, and then resuspending the leukemia cells in saline. Mice receive 1×10^6 P388 cells i.p. on day 0.

[2] = tested on: human lung tumor xenograft; experiment: Human lung tumor xenograft model; type: in vivo, human tumor in nude mice
Source text: (§1) For the human lung and prostate tumor xenograft models the following procedure was used. Nude mice were implanted s.c. by trocar with fragments of human lung or prostate carcinomas harvested from s.c. growing tumors in nude mice hosts. When tumors were approximately 5 mm×5 mm in size (usually ten to fourteen days after inoculation), the animals were pair-matched into treatment and control groups. Each group contained 10 tumored mice, each of which was ear-tagged and followed individually throughout the experiment. […] The doses, route of drug administration and schedule were selected as appropriate for the study in question. (See above protocol). […] Topotecan was run as a positive control at its MTD dose on a daily×5 and a daily×1 schedule. Male nude mice were used for both prostate studies.
(§2) Mice are weighed twice weekly, and tumor measurements were taken by calipers twice weekly, starting on day 1.
(§3) Some drugs cause tumor shrinkage in the human tumor xenograft models. […] A mean % tumor shrinkage can be calculated from the data from the mice in a group that experienced tumor regressions.

[3] = tested on: human prostate tumor xenograft; experiment: Human prostate tumor xenograft model; type: in vivo, human tumor in nude mice
Source text: as §1, §2, §3

[4] = Solubility of HAR7 in various solvents and solvent systems; type: physicochemical
Procedure: In addition to testing for water solubility, one of the analogs of the present invention, HAR7, was tested for solubility in various other solvents and solvent mixtures, to determine the system which provides the greatest solubility for the analog. The results of those solubility experiments are shown below in Table 2:
The solubility of HAR7 in various solvents and solvent systems was measured using one of two experimental methods, depending on the conditions and solvents used.
First, an evaporation method was used in which an excess quantity of HAR7 was added to the solvent of choice. The mixture was finely divided using ultrasonic vibration in order to dissolve the material thoroughly. The resulting mixture was filtered and the solution was evaporated to dryness using a rotary evaporator.
Second, a spectrophotometric method was used in which an excess quantity of HAR7 was added to the solvent of choice. The mixture was finely divided using ultrasonic vibration in order to dissolve the maximum amount of solid. The resulting suspension was filtered through a 0.45 μm nylon filter, and the clear solution was diluted in the same solvent and its concentration was measure spectrophotometrically, based upon an extinction coefficient of 17000 at 258 nm.

Compound: CC[C@@]1(O)C(=O)OCc2c1cc1n(c2=O)Cc2c-1nc1ccccc1c2CO[C@@H]1C=C[C@H](O[C@H]2O[C@H](CO)[C@@H](O)[C@H](O)[C@H]2O)[C@@H](CO)O1 [HAR6, 7-[4-O-(α-D-glucopyranosyl)-2,3-dideoxy-α-D-erythro-hex-2-enopyranosyl]-oxymethylcamptothecin]
- MTD (in vivo): 100 mg/kg
- MTD [1]: 100 mg/kg

Compound: CC[C@@]1(O)C(=O)OCc2c1cc1n(c2=O)Cc2c-1nc1ccccc1c2CO[C@@H]1C=C[C@H](OC(C)=O)[C@@H](COC(C)=O)O1 [HAR4, 7-[4,6-di-O-acetyl-2,3-dideoxy-α-D-erythro-hex-2-enopyranosyl]oxymethylcamptothecin]
- MTD (in vivo): 10 mg/kg

Compound: CC[C@@]1(O)C(=O)OCc2c1cc1n(c2=O)Cc2c-1nc1ccccc1c2CO[C@@H]1C=C[C@H](O)[C@@H](CO)O1 [HAR7, 7-[2,3-dideoxy-α-D-erythro-hex-2-enopyranosyl]-oxymethylcamptothecin]
- complete disappearance of tumors (animals) ([2]; 30 mg/kg daily×5): 2
- Deaths ([2]; 30 mg/kg × 5 days): 0/10
- Shrink (% Tumor Shrinkage Rate) ([2]; 30 mg/kg × 5 days): 100%
- Shrink (number of animals) ([2]; 30 mg/kg × 5 days): 2/10
- TGI (% Tumor Growth Inhibition Rate) ([2]; 30 mg/kg × 5 days): 67%
- TGI (number of animals) ([2]; 30 mg/kg × 5 days): 8/10
- Deaths ([2]; 200 mg single ds): 1/10
- Shrink (% Tumor Shrinkage Rate) ([2]; 200 mg single ds): 67%
- Shrink (number of animals) ([2]; 200 mg single ds): 2/10
- TGI (% Tumor Growth Inhibition Rate) ([2]; 200 mg single ds): 64%
- TGI (number of animals) ([2]; 200 mg single ds): 7/10
- activity against lung xenograft model ([2]; in words): outstanding activity
- efficacy, single dose ([2]; single dose, in words): significant tumor growth inhibition
- Deaths ([3]; 30 mg/kg × 5 days): 0/10
- Shrink (number of animals) ([3]; 30 mg/kg × 5 days): 0/10
- TGI (% Tumor Growth Inhibition Rate) ([3]; 30 mg/kg × 5 days): 77%
- TGI (number of animals) ([3]; 30 mg/kg × 5 days): 10/10
- Deaths ([3]; 100 mg single ds): 0/10
- Shrink (% Tumor Shrinkage Rate) ([3]; 100 mg single ds): 20%
- Shrink (number of animals) ([3]; 100 mg single ds): 1/10
- TGI (% Tumor Growth Inhibition Rate) ([3]; 100 mg single ds): 51%
- TGI (number of animals) ([3]; 100 mg single ds): 9/10
- Deaths ([3]; 200 mg single ds): 0/10
- Shrink (number of animals) ([3]; 200 mg single ds): 0/10
- TGI (% Tumor Growth Inhibition Rate) ([3]; 200 mg single ds): 80%
- TGI (number of animals) ([3]; 200 mg single ds): 10/10
- activity against prostate xenograft model ([3]; in words): outstanding activity
- efficacy, single dose ([3]; single dose, in words): significant tumor growth inhibition
- solubility ([4]; 0.1 m citrate buffer, aqueous buffer): 24 µg/mL (≈ 47.4 µM)
- solubility ([4]; 0.2 m acetate buffer, aqueous buffer): 23 µg/mL (≈ 45.4 µM)
- solubility ([4]; 0.2 m na2hpo4 buffer, aqueous buffer): 30 µg/mL (≈ 59.2 µM)
- solubility ([4]; 0.2 m nah2po4 buffer, aqueous buffer): 32 µg/mL (≈ 63.2 µM)
- solubility ([4]; 2 m acetate buffer, aqueous buffer): 29 µg/mL (≈ 57.3 µM)
- solubility ([4]; 4:1:5 pg/ethanol/dsw, organic solvent or mixture): 960 µg/mL (≈ 1900 µM)
- solubility ([4]; 4:1:5 pg/ethanol/saline, organic solvent or mixture): 893 µg/mL (≈ 1760 µM)
- solubility ([4]; 4:1:5 pg/ethanol/water, organic solvent or mixture): 740 µg/mL (≈ 1460 µM)
- solubility ([4]; 5% ethanol/dsw, organic solvent or mixture): 177 µg/mL (≈ 349 µM)
- solubility ([4]; 5% ethanol/water, organic solvent or mixture): 80 µg/mL (≈ 158 µM)
- solubility ([4]; 10% ethanol/water, organic solvent or mixture): 143 µg/mL (≈ 282 µM)
- solubility ([4]; 20% ethanol/water, organic solvent or mixture): 380 µg/mL (≈ 750 µM)
- solubility ([4]; organic solvent or mixture, PEG 300 (Polyethylene Glycol 300)): > 5000 µg/mL
- solubility ([4]; pure ethanol, organic solvent or mixture): 1980 µg/mL (≈ 3920 µM)
